# Laboratory results as given in patent US11446287B2, “Compounds and methods for EP300 or CBP modulation and indications therefor” (Opna Immuno-Oncology SA, priority 2019, dated 2022).
# Target: T1, Recombinant human CBP containing the bromodomain (CBP-BD (1043-1159)) (Homo sapiens, UniProt Q92793)
# T1 construct: Recombinant human CBP bromodomain (CBP-BD (1043-1159)); made in house; host or cells: E. coli BL21-CodonPlus (DE3), modified pET vector
# Assay: CBP Alphascreen binding assay
# Settings: read-out: CREBBP (CBP) IC50
# Procedure, shortened: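 Buffer: 50 mM HEPES pH 7.5, 50 mM NaCl, 0.01% BSA, 0.01% Triton X-100, 2 mM DTT. The signal was normalised to plate controls and fitted with a four-parameter curve to give IC50.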
# T1 sequence (Q92793 1081-1197): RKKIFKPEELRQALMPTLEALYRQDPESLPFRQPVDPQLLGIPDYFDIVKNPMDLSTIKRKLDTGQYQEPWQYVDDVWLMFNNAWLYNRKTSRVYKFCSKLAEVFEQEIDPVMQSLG
row,Compound,IC50 [nM]
1,"Cc1noc(C)c1-c1cnc2c(c1)c(-c1ccc(C(=O)O)cc1)cn2C(C)c1ncccn1 (centres unmarked) [P-0013, 4-(5-(3,5-dimethylisoxazol-4-yl)-1-(1-(pyrimidin-2-yl)ethyl)-1H-pyrrolo[2,3-b]pyridin-3-yl)benzoic acid]",0.1 to 1000
2,"Cc1noc(C)c1-c1cnc2c(c1)c(-c1ccc(C(=O)O)cc1)cn2C(C)c1ccc(F)cn1 (centres unmarked) [P-0014, 4-(5-(3,5-dimethylisoxazol-4-yl)-1-(1-(5-fluoropyridin-2-yl)ethyl)-1H-pyrrolo[2,3-b]pyridin-3-yl)benzoic acid]",0.1 to 1000
3,"Cc1noc(C)c1-c1cnc2c(c1)c(-c1cccc(C(=O)O)c1)cn2C(c1ccccn1)C1CCCC1 (centres unmarked) [P-0015, 3-(1-(cyclopentyl(pyridin-2-yl)methyl)-5-(3,5-dimethylisoxazol-4-yl)-1H-pyrrolo[2,3-b]pyridin-3-yl)benzoic acid]",0.1 to 1000
4,"Cc1noc(C)c1-c1cnc2c(c1)c(-c1ccc(F)c(C(=O)O)c1)cn2C(c1ccccn1)C1CCCC1 (centres unmarked) [P-0016, 5-(1-(cyclopentyl(pyridin-2-yl)methyl)-5-(3,5-dimethylisoxazol-4-yl)-1H-pyrrolo[2,3-b]pyridin-3-yl)-2-fluorobenzoic acid]",0.1 to 1000
5,"Cc1noc(C)c1-c1cnc2c(c1)c(-c1ccnc(C(=O)O)c1)cn2C(c1ccccn1)C1CCCC1 (centres unmarked) [P-0017, 4-(1-(cyclopentyl(pyridin-2-yl)methyl)-5-(3,5-dimethylisoxazol-4-yl)-1H-pyrrolo[2,3-b]pyridin-3-yl)picolinic acid]",0.1 to 1000
6,"Cc1noc(C)c1-c1cnc2c(c1)c(-c1cccc(CC(=O)O)c1)cn2C(c1ccccn1)C1CCCC1 (centres unmarked) [P-0018, 2-(3-(1-(cyclopentyl(pyridin-2-yl)methyl)-5-(3,5-dimethylisoxazol-4-yl)-1H-pyrrolo[2,3-b]pyridin-3-yl)phenyl)acetic acid]",0.1 to 1000
7,"Cc1noc(C)c1-c1cnc2c(c1)c(-c1ccncc1)cn2C(c1ccccn1)C1CCCC1 (centres unmarked) [P-0019, 4-(1-(cyclopentyl(pyridin-2-yl)methyl)-3-(pyridin-4-yl)-1H-pyrrolo[2,3-b]pyridin-5-yl)-3,5-dimethylisoxazole]",1000 to 8000
8,"Cc1noc(C)c1-c1cnc2c(c1)c(-c1ccc(C(=O)O)cc1OC1CC1)cn2[C@@H](C)c1ccccn1 [P-0170, (S)-3-cyclopropoxy-4-(5-(3,5-dimethylisoxazol-4-yl)-1-(1-(pyridin-2-yl)ethyl)-1H-pyrrolo[2,3-b]pyridin-3-yl)benzoic acid]",0.1 to 1000
9,"Cc1noc(C)c1-c1cnc2c(-c3ccc(C(=O)O)cc3C#CC3CC3)cn([C@@H](C)c3ccccn3)c2c1 [P-0171, (S)-3-(cyclopropylethynyl)-4-(6-(3,5-dimethylisoxazol-4-yl)-1-(1-(pyridin-2-yl)ethyl)-1H-pyrrolo[3,2-b]pyridin-3-yl)benzoic acid]",0.1 to 1000
10,"COc1ccc(C(=O)O)cc1-c1cn(C(C)(c2ccccn2)c2ccccn2)c2cc(-c3c(C)noc3C)cnc12 [P-0172, 3-(1-(1,1-di(pyridin-2-yl)ethyl)-6-(3,5-dimethylisoxazol-4-yl)-1H-pyrrolo[3,2-b]pyridin-3-yl)-4-methoxybenzoic acid]",1000 to 8000
11,"CCOc1cc(C(=O)O)cc(OCC)c1-n1cc(-c2cccnc2)c2ncc(-c3c(C)noc3C)cc21 [P-0173, 4-(6-(3,5-dimethylisoxazol-4-yl)-3-(pyridin-3-yl)-1H-pyrrolo[3,2-b]pyridin-1-yl)-3,5-diethoxybenzoic acid]",0.1 to 1000
12,"CCOc1cc(C(=O)O)cc(OC(C)C)c1-c1cn([C@@H](C)c2ccccn2)c2ncc(-c3c(C)noc3C)cc12 [P-0174, (S)-4-(5-(3,5-dimethylisoxazol-4-yl)-1-(1-(pyridin-2-yl)ethyl)-1H-pyrrolo[2,3-b]pyridin-3-yl)-3-ethoxy-5-isopropoxybenzoic acid]",0.1 to 1000
13,"Cc1noc(C)c1-c1cnc2c(c1)c(-c1ccc(C(=O)O)cc1OC(F)(F)F)cn2-c1cccnc1 [P-0175, 4-(5-(3,5-dimethylisoxazol-4-yl)-1-(pyridin-3-yl)-1H-pyrrolo[2,3-b]pyridin-3-yl)-3-(trifluoromethoxy)benzoic acid]",0.1 to 1000
14,"COc1ccncc1-n1cc(-c2ccc(C(=O)O)cc2OC(F)(F)F)c2cc(-c3c(C)noc3C)cnc21 [P-0176, 4-(5-(3,5-dimethylisoxazol-4-yl)-1-(4-methoxypyridin-3-yl)-1H-pyrrolo[2,3-b]pyridin-3-yl)-3-(trifluoromethoxy)benzoic acid]",0.1 to 1000
15,"Cc1noc(C)c1-c1cnc2c(c1)c(-c1ccc(C(=O)O)cc1OC(F)(F)F)cn2-c1cnccc1Cl [P-0177, 4-(1-(4-chloropyridin-3-yl)-5-(3,5-dimethylisoxazol-4-yl)-1H-pyrrolo[2,3-b]pyridin-3-yl)-3-(trifluoromethoxy)benzoic acid]",0.1 to 1000
16,"Cc1noc(C)c1-c1cnc2c(c1)c(-c1ccc(C(=O)O)cc1C#CC1CC1)cn2[C@@H](C)c1ccccn1 [P-0178, (S)-3-(cyclopropylethynyl)-4-(5-(3,5-dimethylisoxazol-4-yl)-1-(1-(pyridin-2-yl)ethyl)-1H-pyrrolo[2,3-b]pyridin-3-yl)benzoic acid]",1000 to 8000
17,"Cc1noc(C)c1-c1cnc2c(c1)c(-c1ccc(C(=O)O)cc1OC1CCC1)cn2[C@@H](C)c1ccccn1 [P-0179, (S)-3-cyclobutoxy-4-(5-(3,5-dimethylisoxazol-4-yl)-1-(1-(pyridin-2-yl)ethyl)-1H-pyrrolo[2,3-b]pyridin-3-yl)benzoic acid]",0.1 to 1000
18,"Cc1noc(C)c1-c1cnc2c(c1)c(-c1ccc(C(=O)O)cc1OC(F)(F)F)cn2-c1ncccc1C(F)(F)F [P-0180, 4-(5-(3,5-dimethylisoxazol-4-yl)-1-(3-(trifluoromethyl)pyridin-2-yl)-1H-pyrrolo[2,3-b]pyridin-3-yl)-3-(trifluoromethoxy)benzoic acid]",0.1 to 1000
19,"Cc1noc(C)c1-c1cnc2c(c1)c(-c1ccc(C(=O)O)cc1C1CC1)cn2[C@@H](C)c1ccccn1 [P-0181, (S)-3-cyclopropyl-4-(5-(3,5-dimethylisoxazol-4-yl)-1-(1-(pyridin-2-yl)ethyl)-1H-pyrrolo[2,3-b]pyridin-3-yl)benzoic acid]",0.1 to 1000
20,"Cc1noc(C)c1-c1cnc2c(c1)c(-c1ccc(C(=O)O)cc1OC(F)(F)F)cn2-c1ncccc1F [P-0182, 4-(5-(3,5-dimethylisoxazol-4-yl)-1-(3-fluoropyridin-2-yl)-1H-pyrrolo[2,3-b]pyridin-3-yl)-3-(trifluoromethoxy)benzoic acid]",0.1 to 1000
21,"Cc1noc(C)c1-c1cnc2c(c1)c(-c1ccc(C(=O)O)cc1OC(F)(F)F)cn2-c1ncccc1Cl [P-0183, 4-(1-(3-chloropyridin-2-yl)-5-(3,5-dimethylisoxazol-4-yl)-1H-pyrrolo[2,3-b]pyridin-3-yl)-3-(trifluoromethoxy)benzoic acid]",0.1 to 1000
22,"CCOc1cc(C(=O)O)cc(OCC)c1-n1cc(-c2ccc(F)cc2)c2ncc(-c3c(C)noc3C)cc21 [P-0184, 4-(6-(3,5-dimethylisoxazol-4-yl)-3-(4-fluorophenyl)-1H-pyrrolo[3,2-b]pyridin-1-yl)-3,5-diethoxybenzoic acid]",0.1 to 1000
23,"CCOc1cc(C(=O)O)cc(OCC)c1-n1cc(-c2cccc(Cl)c2)c2ncc(-c3c(C)noc3C)cc21 [P-0185, 4-(3-(3-chlorophenyl)-6-(3,5-dimethylisoxazol-4-yl)-1H-pyrrolo[3,2-b]pyridin-1-yl)-3,5-diethoxybenzoic acid]",0.1 to 1000
